# According to article doi:10.1101/2024.07.16.603720v1 (biorxiv, 2024):
# T1: sDacD (sPBP6b) (Acinetobacter baumannii, UniProt A0ABX6CI93)
# T1 sequence (A0ABX6CI93 22-409): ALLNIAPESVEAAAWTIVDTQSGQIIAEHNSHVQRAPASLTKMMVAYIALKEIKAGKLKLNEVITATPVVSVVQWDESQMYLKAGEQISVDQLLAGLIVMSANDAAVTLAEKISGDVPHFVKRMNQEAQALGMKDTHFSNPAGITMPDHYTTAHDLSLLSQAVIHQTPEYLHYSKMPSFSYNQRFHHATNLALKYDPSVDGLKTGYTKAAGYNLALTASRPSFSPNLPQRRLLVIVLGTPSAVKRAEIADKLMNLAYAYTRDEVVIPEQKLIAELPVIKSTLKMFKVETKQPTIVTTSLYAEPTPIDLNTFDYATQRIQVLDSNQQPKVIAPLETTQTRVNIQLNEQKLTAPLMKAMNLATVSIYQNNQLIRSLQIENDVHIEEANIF
# T2: sDacC (sPBP5/6) (Acinetobacter baumannii, UniProt G1C735)
# T2 sequence (G1C735 20-367): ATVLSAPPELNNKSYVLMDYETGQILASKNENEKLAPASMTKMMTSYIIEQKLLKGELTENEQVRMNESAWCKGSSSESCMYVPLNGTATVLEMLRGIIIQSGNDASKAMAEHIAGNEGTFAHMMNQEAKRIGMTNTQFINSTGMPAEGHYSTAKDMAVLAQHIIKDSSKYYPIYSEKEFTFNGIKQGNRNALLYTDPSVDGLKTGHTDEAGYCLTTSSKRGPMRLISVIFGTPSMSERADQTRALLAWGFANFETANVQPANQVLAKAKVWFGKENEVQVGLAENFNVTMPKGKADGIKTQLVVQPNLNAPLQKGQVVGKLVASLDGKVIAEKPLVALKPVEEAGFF
# B1: sDacC (sPBP5/6) (Acinetobacter baumannii) (protein)
# chain: T2 sequence (G1C735 20-367)
# Assays:
# [1] = tested on: A. baumannii AB19606 WT (19606); test: microbe, parasite or virus in culture; design: species or system Acinetobacter baumannii AB19606; conditions: Acinetobacter baumannii, read-out: MIC
# sDacD (sPBP6b) [2] = target: T1, sDacD (sPBP6b); test: Bocillin FL competition, SDS-PAGE fluorescence; format: binding
# sDacC (sPBP5/6) [3] = target: T2, sDacC (sPBP5/6); test: Bocillin FL competition, SDS-PAGE fluorescence; format: binding
# sDacC (sPBP5/6) [4] = target: T2, sDacC (sPBP5/6); test: biochemical
# sDacD (sPBP6b) [5] = target: T1, sDacD (sPBP6b); test: biochemical
# [6] = substrate: C[C@@H](O)[C@H]1C(=O)N2C(C(=O)O)=C(S[C@@H]3CN[C@H](C(=O)N(C)C)C3)[C@H](C)[C@H]12; test: purified protein, by the assay type; conditions: pH 7.4; 30.0 °C
# [7] = substrate: NC(=O)c1cc[n+](CC2=C(C(=O)O)N3C(=O)[C@@H](NC(=O)[C@@H](c4ccccc4)S(=O)(=O)[O-])[C@H]3SC2)cc1; test: purified protein, by the assay type; conditions: pH 7.4; 30.0 °C
# [8] = substrate: CC(C)(O/N=C(\C(=O)N[C@@H]1C(=O)N2C(C(=O)[O-])=C(C[n+]3ccccc3)CS[C@H]12)c1csc(N)n1)C(=O)O; test: purified protein, by the assay type; conditions: pH 7.4; 30.0 °C
# [9] = substrate: C[C@@H](O)[C@H]1C(=O)N2C(C(=O)O)=C(S[C@@H]3CN[C@H](CNS(N)(=O)=O)C3)[C@H](C)[C@H]12; test: purified protein, by the assay type; conditions: pH 7.4; 30.0 °C
# purified protein [10] = substrate: CC1(C)S[C@@H]2[C@H](NC(=O)[C@H](C(=O)O)c3ccsc3)C(=O)N2[C@H]1C(=O)O; test: purified protein; conditions: 10 mM phosphate, pH 7.4, 30 °C
# purified protein [11] = substrate: CC1(C)S[C@@H]2[C@H](NC(=O)Cc3ccccc3)C(=O)N2[C@H]1C(=O)O; test: purified protein; conditions: 10 mM phosphate, pH 7.4, 30 °C
# purified protein [12] = substrate: CO/N=C(\C(=O)N[C@@H]1C(=O)N2C(C(=O)O)=C(COC(C)=O)CS[C@H]12)c1csc(N)n1; test: purified protein; conditions: 10 mM phosphate, pH 7.4, 30 °C
# purified protein [13] = substrate: C[C@@H](O)[C@H]1C(=O)N2C(C(=O)O)=C(SCCN=CN)C[C@H]12; test: purified protein; conditions: 10 mM phosphate, pH 7.4, 30 °C
Molecule,MIC [1],IC50 (sDacD (sPBP6b) [2]),IC50 (sDacC (sPBP5/6) [3]),also measured
"CC1(C)S[C@@H]2[C@H](NC(=O)[C@H](N)c3ccc(O)cc3)C(=O)N2[C@H]1C(=O)O [AMX, Amoxicillin]",1000 µg/mL,,,
"CC(C)(O/N=C(\C(=O)N[C@@H]1C(=O)N2C(C(=O)[O-])=C(C[n+]3ccccc3)CS[C@H]12)c1csc(N)n1)C(=O)O [CAZ, Ceftazidime]",16 µg/mL,,,
C=CC1=C(C(=O)O)N2C(=O)[C@@H](NC(=O)/C(=N\OCC(=O)O)c3csc(N)n3)[C@H]2SC1 [Cefixime],,52.8 µM,20.9 µM,
CO/N=C(\C(=O)N[C@@H]1C(=O)N2C(C(=O)O)=C(COC(C)=O)CS[C@H]12)c1csc(N)n1 [Cefotaxime],64 µg/mL,,,
NC(=O)c1cc[n+](CC2=C(C(=O)[O-])N3C(=O)[C@@H](NC(=O)[C@@H](c4ccccc4)S(=O)(=O)O)[C@H]3SC2)cc1 [Cefsulodin],250 µg/mL,8.6 µM,6.3 µM,
CO/N=C(\C(=O)N[C@@H]1C(=O)N2C(C(=O)O)=C(COC(N)=O)CS[C@H]12)c1ccco1 [Cefuroxime],500 µg/mL,161 µM,12.9 µM,
O=C(O)[C@H]1/C(=C/CO)O[C@@H]2CC(=O)N21 [Clavulanic acid],,5.8 µM,,
C[C@@H](O)[C@H]1C(=O)N2C(C(=O)O)=C(S[C@@H]3CN[C@H](CNS(N)(=O)=O)C3)[C@H](C)[C@H]12 [Doripenem],1.6 µg/mL,1.7 µM,9.2 µM,
"CO[C@@]1(NC(=O)Cc2cccs2)C(=O)N2C(C(=O)O)=C(COC(N)=O)CS[C@@H]21 [FOX, Cefoxitin]",500 µg/mL,,,
C[C@@H](O)[C@H]1C(=O)N2C(C(=O)O)=C(S[C@@H]3CN[C@H](C(=O)N(C)C)C3)[C@H](C)[C@H]12 [Meropenem],1.6 µg/mL,2.7 µM,15.7 µM,
Cc1onc(-c2ccccc2)c1C(=O)N[C@@H]1C(=O)N2[C@@H]1SC(C)(C)[C@@H]2C(=O)O [Oxacillin],500 µg/mL,417 µM,95.9 µM,
"CCN1CCN(C(=O)N[C@@H](C(=O)N[C@@H]2C(=O)N3[C@@H]2SC(C)(C)[C@@H]3C(=O)O)c2ccccc2)C(=O)C1=O [PIP, Piperacillin]",500 µg/mL,,,IC50 (sDacC (sPBP5/6) [4]): 539 µM; IC50 (sDacD (sPBP6b) [5]): 3280 µM
CC1(C)S[C@@H]2[C@H](NC(=O)Cc3ccccc3)C(=O)N2[C@H]1C(=O)O [Penicillin G],> 2000 µg/mL,,,
CC1(C)[C@H](C(=O)O)N2C(=O)C[C@H]2S1(=O)=O [Sulbactam],,3.8 µM,,IC50 (sDacC (sPBP5/6) [4]): 184 µM
C[C@]1(Cn2ccnn2)[C@H](C(=O)O)N2C(=O)C[C@H]2S1(=O)=O [Tazobactam],,,,IC50 (sDacC (sPBP5/6) [4]): 1830 µM; IC50 (sDacD (sPBP6b) [5]): 1590 µM
CC1(C)S[C@@H]2[C@H](NC(=O)[C@H](C(=O)O)c3ccsc3)C(=O)N2[C@H]1C(=O)O [Ticarcillin],16 µg/mL,,,
B1,,,,Km [6]: 12.19 µM; kcat [6]: 10 s⁻¹; kcat/Km [6]: 820000 M⁻¹ s⁻¹; Km [7]: 21.21 µM; kcat [7]: 12.2 s⁻¹; kcat/Km [7]: 570000 M⁻¹ s⁻¹; Km [8]: 21.09 µM; kcat [8]: 8.36 s⁻¹; kcat/Km [8]: 390000 M⁻¹ s⁻¹; Km [9]: 17.39 µM; kcat [9]: 5.35 s⁻¹; kcat/Km [9]: 310000 M⁻¹ s⁻¹; Km (purified protein [10]): 12.47 ± 2.5 µM; kcat (purified protein [10]): 93.31 ± 9.0 s⁻¹; Km (purified protein [11]): 8.2 ± 1.4 µM; kcat (purified protein [11]): 65.81 ± 12.5 s⁻¹; Km (purified protein [12]): 6.09 ± 0.9 µM; kcat (purified protein [12]): 7.04 ± 1.1 s⁻¹; Km (purified protein [13]): 3.75 ± 0.4 µM; kcat (purified protein [13]): 7.52 ± 0.5 s⁻¹
